Reference: US11312688B2, “Pyrazole compound” (Sumitomo Dainippon Pharma Co., Ltd., priority 2011, dated 2022)

What follows are compounds tested against T1, human serotonin 2C receptor (h-5-HT2C) (Homo sapiens (Human), UniProt P28335) (assay: [3H] mesulergine binding assay to evaluate affinity for human 5-HT2C receptor). Settings: Test Ex. 2, h-5-HT2C/CHO membrane preparation, read-out: 5-HT2C receptor binding inhibition constant Ki.
T1 sequence (P28335 whole entry, looked up): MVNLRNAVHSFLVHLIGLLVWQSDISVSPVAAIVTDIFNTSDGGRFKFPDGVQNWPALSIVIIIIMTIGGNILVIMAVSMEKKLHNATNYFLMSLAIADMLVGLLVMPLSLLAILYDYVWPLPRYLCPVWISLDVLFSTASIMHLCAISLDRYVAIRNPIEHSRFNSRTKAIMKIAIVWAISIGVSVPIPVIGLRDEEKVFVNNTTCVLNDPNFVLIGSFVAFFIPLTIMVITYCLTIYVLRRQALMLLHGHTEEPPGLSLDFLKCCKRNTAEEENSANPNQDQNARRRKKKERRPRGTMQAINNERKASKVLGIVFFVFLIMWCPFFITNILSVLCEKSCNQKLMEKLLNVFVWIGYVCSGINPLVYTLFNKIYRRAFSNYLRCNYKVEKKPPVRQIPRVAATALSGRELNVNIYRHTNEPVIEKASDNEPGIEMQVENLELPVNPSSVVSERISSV
Experimental: Mesulergine Binding Assay to Evaluate Affinity for Human 5-HT2C Receptor
Preparation of the Cells and Membrane Preparations
In the experiment, human serotonin 2C receptor (h-5-HT2C) was expressed in CHO cells (h-5-HT2C/CHO). The cells were incubated with UltraCHO Lipuid (trademark) (manufactured by BioWhitakker) containing 1% FBS, 400 μg/mL Geneticin, 100 U/mL penicillin-100 μg/mL streptomycin (all manufactured by Sigma Aldrich) and 250 μg/mL Zeosin (manufactured by InvivoGen) in an incubator containing 5% CO2; detached and collected using 50 mmol/L Tris-HCl (pH=7.4); homogenized with a homogenizer manufactured by Teflon (trademark); and then centrifuged (48,000×g, 25 min, 4° C.). […]
A solution of 200 μL in total was prepared by mixing 50 μL of [^3H] mesulergine (manufactured by GE Healthcare) diluted with 50 mmol/L Tris-HCl (pH=7.4) (final concentration: about 2 nmol/L), 149 μL of the h-5-HT2C/CHO membrane preparation (protein amount: 20 μg/well), and 1 μL of the test drug dissolved in dimethylsulfoxide. […] The glass fiber filter was washed twice with 250 μL of 50 mmol/L Tris-HCl (pH=7.4), placed in a plastic vial containing 4 mL of liquid scintillator (ACS-II, manufactured by Amersham) or Ecoscint A (manufactured by National Diagnostics), and the remaining radioactivity on the filter paper was assayed with a liquid scintillation counter. […]

Compound | Ki [nM]
CNCc1cc(OCc2cc(Cl)ccc2F)n(CC2CCCCO2)n1 (single isomer, unassigned; (+)) [Example 475, (+)-1-{5-[(5-chloro-2-fluorobenzyl)oxy]-1-(tetrahydro-2H-pyran-2-ylmethyl)-1H-pyrazol-3-yl}-N-methylmethanamine] | 19

Each compound was assayed against human serotonin transporter (h-SERT) (Homo sapiens (Human), UniProt P31645) (assay: [3H] citalopram binding assay to evaluate human serotonin reuptake inhibitory action (h-SERT binding assay)). Settings: h-SERT binding inhibition constant Ki, Test Ex. 1.
Experimental: Citalopram Binding Assay to Evaluate Human Serotonin Reuptake Inhibitory Action
In the experiment, human serotonin transporter (h-SERT) was expressed in CHO cells (h-SERT/CHO). The cells were incubated with F12 containing 10% FCS, 500 μg/mL Geneticin and 100 U/mL penicillin-100 μg/mL streptmycin (all manufactured by Sigma Aldrich) in an incubator containing 5% CO2; detached and collected using a SERT buffer [50 mmol/L Tris-HCl comprising 120 mmol/L NaCl and 5 mmol/L KCl (pH=7.4)]; homogenized with a homogenizer manufactured by Teflon (trademark); and then centrifuged (50,000×g, 30 min, 4° C.). The precipitate was suspended again in the appropriate amount of SERT buffer (to give a membrane preparation), and stored at −80° C. until used. The amount of protein in the membrane preparation was assayed by Dye Reagent Concentrate (manufactured by BIO-RAD) using bovine serum albumin (manufactured by Sigma Aldrich) as a standard.
The [^3H] citalopram binding was measured according to the method disclosed in Owens M. J. et al., J. Pharm. […] The glass fiber filter was washed twice with 250 HL of the SERT buffer, placed in a plastic vial containing 4 mL of liquid scintillator (ACS-II, manufactured by Amersham) or Ecoscint A (manufactured by National Diagnostics), and the remaining radioactivity on the filter paper was assayed with a liquid scintillation counter.

Compound | Ki [nM]
CNCc1cc(OCc2cc(Cl)ccc2F)n(CC2CCCCO2)n1 (single isomer, unassigned; (+)) [Example 475, (+)-1-{5-[(5-chloro-2-fluorobenzyl)oxy]-1-(tetrahydro-2H-pyran-2-ylmethyl)-1H-pyrazol-3-yl}-N-methylmethanamine] | 9.2

Each compound was assayed against T1, human serotonin 2C receptor (h-5-HT2C) (assay: 5-HT2C receptor agonistic action assay (FLIPR Calcium 4, h-5-HT2C/CHO cells; agonistic / inverse agonistic action)). Settings: not given.
Type: cell-based
Experimental: 3-1. The Cells and Inoculation Thereof
In the experiment, human serotonin 2C receptor (h-5-HT2C) was expressed in CHO cells (h-5-HT2C/CHO). The cells were incubated with UltraCHO Lipuid (trademark) (manufactured by BioWhitakker) containing 1% FBS, 400 μg/mL Geneticin, 100 U/mL penicillin-100 μg/mL streptomycin (all manufactured by Sigma Aldrich) and 250 μg/mL Zeosin (manufactured by InvivoGen) in an incubator containing 5% CO2. On the day before using the cells, they were detached and collected using 250 μg/mL Trypsin solution (manufactured by Nacalai Tesque), then inoculated in a 96 well flat clear bottom black polystyrene TC-treated microplates (manufactured by Corning) at 40000 cells/well/60 μL in an incubator containing 5% CO2 for 16 hours to 24 hours.
3-2. 5-HT2C Receptor Agonistic Action Assay
The 5-HT2C receptor agonistic action was evaluated with FLIPR Calcium 4 Assay kit (manufactured by Molecular Devices). In specific, to the cells inoculated in the plate were added Component A of FLIPR Calcium 4 Assay kit dissolved in 100 mL of HHBP buffer (1×Hanks buffer, 20 mmol/L HEPES, both manufactured by Gibco) at an amount of 40 μL/well, and the cells were incubated in an incubator containing 5% CO2 for 1 hour. Then, the cells were set in FLIPR TETRA (trademark) (manufactured by Molecular Devices), to the cells was added the test material diluted with HHBP buffer, 2.5 mmol/L Probenecid (manufactured by Sigma) (concentration after dilution: 10 μmol/L) at an amount of 20 μL/well, and the fluorescence was measured. Then, in order to evaluate the antagonistic action of the test material, 20 μL/well of 5-HT solution (manufactured by Sigma, final concentration: 0.1 nmol/L) was further added to the cells, and the fluorescence was measured.
The 5-HT2C receptor agonistic action of each test material was calculated as a rate of fluorescence enhancement wherein 100% was defined as a value when the cells were given 10 μmol/L 5-HT. Furthermore, the 5-HT2C receptor inverse agonistic action was calculated as a rate of fluorescence decay wherein −100% was defined as a value when the cells were given 10 μmol/L SB206553 (manufactured by Sigma Aldrich). A lower value of the 5-HT2C receptor agonistic action of the test material means that the material has a higher antagonistic action. In particular, when the value of the 5-HT2C receptor agonistic action of the test material is below 0%, the material has an inverse agonistic action for 5-HT2C receptor.

Compound | 5-HT2C receptor agonistic action [%]
CNCc1cc(OCc2cc(Cl)ccc2F)n(CC2CCCCO2)n1 (single isomer, unassigned; (+)) [Example 475, (+)-1-{5-[(5-chloro-2-fluorobenzyl)oxy]-1-(tetrahydro-2H-pyran-2-ylmethyl)-1H-pyrazol-3-yl}-N-methylmethanamine] | −95
CNCc1cc(OCc2cccc(OC)c2)n(CC2CCCCC2)n1 [Compound 42] | −106
CNCc1cc(OCc2ccc(F)cc2C)n(CC2CCCCO2)n1 (stereo not drawn) [Compound 108] | −117
CNCc1cc(OCc2cc(Cl)ccc2F)n(CCC(C)OC)n1 (stereo not drawn) [Compound 405] | −90
CNCc1cc(OCc2cc(Cl)ccc2F)n(CC2(OC)CCCCC2)n1 [Compound 434] | −87
CNCc1cc(OCc2ccccc2)n(CCCc2ccccc2)n1 [Example 3, 1-[5-(Benzyloxy)-1-(3-phenylpropyl)-1H-pyrazol-3-yl]-N-methylmethanamine] | −91
CNCc1cc(OCc2ccccc2)n(CC2CCCCC2)n1 [Example 5, 1-[5-(Benzyloxy)-1-(cyclohexylmethyl)-1H-pyrazol-3-yl]-N-methylmethanamine] | −91
CNCc1cc(OCc2ccc(F)cc2F)n(CC2CCCC2)n1 [Example 144, 1-{1-(cyclopentylmethyl)-5-[(2,4-difluorobenzyl)oxy]-1H-pyrazol-3-yl}-N-methylmethanamine] | −127
CNCc1cc(OCc2ccccc2F)n(Cc2ccc(F)cc2)n1 [Example 218, 1-{1-(4-fluorobenzyl)-5-[(2-fluorobenzyl)oxy]-1H-pyrazol-3-yl}-N-methylmethanamine] | −111
CNCc1cc(OCc2cc(Cl)ccc2F)n(CCC(C)(C)OC)n1 [Example 275, 1-{5-[(5-chloro-2-fluorobenzyl)oxy]-1-(3-methoxy-3-methylbutyl)-1H-pyrazol-3-yl}-N-methylmethanamine] | −88
CNCc1cc(OCc2ccccc2)n(C(C)C2CCCC2)n1.Cl (stereo not drawn) [Example 288, 1-[5-(Benzyloxy)-1-(1-cyclopentylethyl)-1H-pyrazol-3-yl]-N-methylmethanamine Hydrochloride] | −80
CNCc1cc(OCc2ccccc2)n(C(CO)C2CCCCC2)n1.Cl (stereo not drawn) [Example 328, 2-{5-(Benzyloxy)-3-[(methylamino)methyl]-1H-pyrazol-1-yl}-2-cyclohexyl-ethanol Hydrochloride] | −116
CNCc1cc(OCc2ccccc2)n(C(CF)C2CCCCC2)n1.Cl (stereo not drawn) [Example 330, 1-[5-(Benzyloxy)-1-(1-cyclohexyl-2-fluoroethyl)-1H-pyrazol-3-yl]-N-methylmethanamine Hydrochloride] | −82
CNCc1cc(OCc2cccc(Cl)c2)n(CC2CCc3ccccc3O2)n1.Cl (stereo not drawn) [Example 341, 1-{5-[(3-Chlorobenzyl)oxy]-1-(3,4-dihydro-2H-chromen-2-yl-methyl)-1H-pyrazol-3-yl}-N-methylmethanamine Hydrochloride] | −71
CCNCc1cc(OCc2cc(F)ccc2F)n(CC2CCCCC2)n1 [Example 344, N-({1-(Cyclohexylmethyl)-5-[(2,5-difluorobenzyl)oxy]-1H-pyrazol-3-yl}methyl)ethanamine] | −82
Cl.NCc1cc(OCc2cc(F)ccc2F)n(CC2CCCC2)n1 [Example 347, 1-{1-(Cyclopentylmethyl)-5-[(2,5-difluorobenzyl)oxy]-1H-pyrazol-3-yl}methanamine Hydrochloride] | −114
CNCc1cc(OC(F)(F)c2ccccc2)n(CC2CCCCC2)n1.Cl [Example 349, 1-{1-(Cyclohexylmethyl)-5-[difluoro(phenyl)methoxy]-1H-pyrazol-3-yl}-N-methylmethanamine Hydrochloride] | −82
CNCc1cc(OC(C)c2cccc(Cl)c2)n(CC2CCCCC2)n1.Cl (stereo not drawn) [Example 350, 1-{5-[1-(3-Chlorophenyl)ethoxy]-1-(cyclohexylmethyl)-1H-pyrazol-3-yl}-N-methylmethanamine Hydrochloride] | −92
CNCc1cc(SCc2ccccc2)n(Cc2ccccc2)n1.Cl [Example 355, 1-[1-Benzyl-5-(benzylsulfanyl)-1H-pyrazol-3-yl]-N-methylmethanamine Hydrochloride] | −72
CNCc1cc(OCc2cc(F)c(F)cc2F)n(CCC2CC2)n1 [Example 426] | −99
CNCc1cc(OCc2cc(Cl)ccc2F)n(CCC2(O)CCCC2)n1.Cl [Example 435, 1-(2-{5-[(5-Chloro-2-fluorobenzyl)oxy]-3-[(methylamino)-methyl]-1H-pyrazol-1-yl}ethyl)cyclopentanol Hydrochloride] | −125
CNCc1cc(OCc2cc(F)ccc2F)n(CCC(C)(C)F)n1.Cl [Example 481, 1-{5-[(2,5-Difluorobenzyl)oxy]-1-(3-fluoro-3-methylbutyl)-1H-pyrazol-3-yl}-N-methylmethanamine Hydrochloride] | −109
CNCc1cc(OCc2cc(Cl)ccc2F)n(CCC(C)(C)F)n1.Cl [Example 482, 1-{5-[(5-Chloro-2-fluorobenzyl)oxy]-1-(3-fluoro-3-methylbutyl)-1H-pyrazol-3-yl}-N-methylmethanamine Hydrochloride] | −116
N-Benzyl-1-(cyclohexylmethyl)-3-[(methyl]-1H-pyrazol-5-amine Dihydrochloride [Example 357] | −120

Same assay, conditions: Test Ex. 3; test material 10 μmol/L; 100% = 10 μmol/L 5-HT, −100% = 10 μmol/L SB206553; below 0% = inverse agonistic action

Compound | 5-HT2C receptor agonistic action [%]
CNC(C)c1cc(OCc2cc(F)ccc2F)n(CCC2CCCC2)n1 (single isomer, unassigned; (+)) [Example 477, (+)-1-{1-(2-cyclopentylethyl)-5-[(2,5-difluorobenzyl)-oxy]-1H-pyrazol-3-yl}-N-methylethanamine] | −94
CNC(C)c1cc(OCc2cc(F)ccc2F)n(CCC2CCCC2)n1 (single isomer, unassigned; (-)) [Example 476, (−)-1-{1-(2-cyclopentylethyl)-5-[(2,5-difluorobenzyl)-oxy]-1H-pyrazol-3-yl}-N-methylethanamine] | −72
CCC(CC)n1nc(CNC)cc1OCc1ccc(F)cc1Cl [Example 253] | −86
CNCc1cc(OCc2cc(Cl)ccc2F)n(CC(C)C)n1 [Example 256, 1-{5-[(5-chloro-2-fluorobenzyl)oxy]-1-(2-methylpropyl)-1H-pyrazol-3-yl}-N-methylmethanamine] | −97
CNCc1cc(OCc2cc(Cl)ccc2F)n(CC(C)(C)C)n1 [Example 259, 1-{5-[(5-chloro-2-fluorobenzyl)oxy]-1-(2,2-dimethylpropyl)-1H-pyrazol-3-yl}-N-methylmethanamine] | −119
CNCc1cc(OCc2cc(F)ccc2F)n(CCC(C)(C)C)n1 [Example 266, 1-{5-[(2,5-difluorobenzyl)oxy]-1-(3,3-dimethylbutyl)-1H-pyrazol-3-yl}-N-methylmethanamine] | −86
CNC(C)c1cc(OCc2cc(F)ccc2F)n(CCC2CCCC2)n1 (stereo not drawn) [Example 315, 1-{1-(2-cyclopentylethyl)-5-[(2,5-difluorobenzyl)oxy]-1H-pyrazol-3-yl}-N-methylethanamine] | −84
